From patent publication US7122173B2, “Agent for the treatment of bladder irritative symptoms accompanied by benign prostatic hyperplasia” (Kyowa Hakko Kogyo Co., Ltd., priority 2001, dated 2006)

Legend:
[1] = test system: delayed rectifier K^+ channel; test: Voltage clamp, delayed rectifier K+ currents in Fast Blue-labeled capsaicin-sensitive bladder afferent neurons; type: cell-based, rat; settings: Compound 1 1.0 × 10^−6 mol/L
Method: (§1) Experiments were performed on adult female Sprague Dawley rats. First and second series of the experiments were performed, respectively, in unidentified DRG neurons and a specific population of DRG neurons innervating the urinary bladder. The population of DRG neurons that innervate the urinary bladder were labeled by retrograde axonal transport of the fluorescent dye, Fast Blue (4% w/v) (Polyloy, Gross Umstadt, Germany), injected into the wall of the bladder in halothane-anesthetized animals 7 days before the dissociation. The dye was injected with a 28 gauge needle at three to six sites on the dorsal surface of the organ (5–6 μL per site, total volume of 20–30 μL). Each injection site was washed with saline to minimize contamination of adjacent organs with the dye.
Freshly dissociated neurons from DRG were prepared from halothane-anesthetized animals. […]
Dye-labeled primary afferent neurons that innervate the urinary bladder were identified using an inverted phase-contrast microscope (Nikon, Tokyo, Japan) with fluorescent attachments (UV-1A filter; excitation wavelength, 365 nm). […] All recordings were made with an Axopatch-1D patch-clamp amplifier (Axon Instruments, Foster City, Calif.), and data were acquired and analyzed by PCLAMP software (Axon Instruments).
In voltage-clamp recordings, outward K^+ currents and inward Na^+ currents were measured. […]

[2] = test system: slowly-inactivating A-type K^+ channel; test: Voltage clamp, slowly-inactivating A-type K+ currents (HP −90 mV) in unidentified DRG neurons; type: cell-based, rat; settings: for K+ current HP: −90 mV (slowly-inactivating A-type), relative value (before drug = 1): unidentified DRG neurons
Method: as §1
Freshly dissociated neurons from DRG were prepared from halothane-anesthetized animals. L6 and S1 DRG were dissected from animals and then dissociated in a shaking bath for 25 minutes at 35° C. with 5 mL DMEM (Sigma) containing 0.3 mg/mL trypsin (Type 3, Sigma), 1 mg/mL collagenase (Type 1, Sigma), and 0.1 mg/mL deoxyribonuclease (Type 4, Sigma). Trypsin inhibitor (Type 2a, Sigma) was then added thereto to neutralize the activity of trypsin. Individual DRG cell bodies were isolated by trituration and then plated on a poly-L-lysine-coated 35 mm Petri dishes.
Dye-labeled primary afferent neurons that innervate the urinary bladder were identified using an inverted phase-contrast microscope (Nikon, Tokyo, Japan) with fluorescent attachments (UV-1A filter; excitation wavelength, 365 nm). Gigaohm-seal whole-cell recordings were performed at room temperature (20–22° C.) on each labeled neuron in a culture dish that usually contained three to seven labeled cells among a few hundred unlabeled neurons. The internal solution contained (in mmol/L): KCl 140, CaCl2 1, MgCl2 2, EGTA 11, HEPES 10, Mg-ATP 2, and Tris-GTP 0.4 adjusted to pH 7.4 with KOH. Patch electrodes had resistances of 1–4 M Ω when filled with the internal solution. Neurons were superfused at a flow rate of 1.5 mL/minutes with an external solution containing (in mmol/L): NaCl 150, KCl 5, CaCl2 2.5, MgCl2 1, HEPES 10, and D-glucose 10, adjusted to pH 7.4 with NaOH. All recordings were made with an Axopatch-1D patch-clamp amplifier (Axon Instruments, Foster City, Calif.), and data were acquired and analyzed by PCLAMP software (Axon Instruments).
In voltage-clamp recordings, outward K^+ currents and inward Na^+ currents were measured. For the isolation of K^+ currents, the external solution was changed to one containing (in mmol/L): choline-Cl 150, KOH 5, CaCl2 0.03, HEPES 10, Mg(OH)2 3, and D-glucose 10, adjusted to pH 7.4 with HCl.
In first series of experiments using unidentified DRG neurons, outward K^+ currents were evoked by voltage steps to +60 mV, 800 ms long from a holding potentials of −90 mV, this was followed by a 1-second conditioning pre-pulse to −20 mV followed by a second pulse to +60 mV, identical to the first in the sequence. In the second series of experiments using Fast Blue-labeled bladder afferent neurons, slowly-inactivating A-type K^+ currents were isolated by subtraction of outward K^+ currents activated from a holding potential of −40 mV (on the condition of inactivation of the majority of slowly-inactivating A-type K^+ currents) from those activated from a holding potential of −120 mV (on the condition of full activation of slowly-inactivating A-type K^+ currents). A compound was added cumulatively, starting with a lower concentration. Currents were measured at the maximum (peak) and normalized to control (before addition of the compound).
The currents at a holding potential (HP) of −90 mV are results of the measurement of slowly-inactivating A-type K^+ currents, and the currents at an HP value of −20 mV are results of the measurement of delayed rectifier K^+ currents. […]

SMILES: C[C@](O)(C(=O)Nc1cccc2c1C(=O)c1sccc1CS2(=O)=O)C(F)(F)F [Compound 1, (S)-(+)-N-(5,5-dioxido-10-oxo-4,10-dihydrothieno[3,2-c][1]benzothiepin-9-yl)-3,3,3-trifluoro-2-hydroxy-2-methylpropanamide]
- Delayed rectifier HP: −40 mV, normalized to control [1]: 1.10 ± 0.01
- K+ current HP: −90 mV, relative value (before drug = 1) ([2]; Compound 1 1.0 × 10^−5 mol/L, in the presence of 5 μmol/L verapamil): 0.99 ± 0.02
- K+ current HP: −90 mV, relative value (before drug = 1) ([2]; Compound 1 1.0 × 10^−5 mol/L, in the presence of 20 mmol/L tetraethylammonium): 1.19 ± 0.01
- K+ current HP: −90 mV (slowly-inactivating A-type), relative value (before drug = 1) ([2]; Compound 1 1.0 × 10^−5 mol/L): 0.96 ± 0.05
- K+ current HP: −90 mV, relative value (before drug = 1) ([2]; Compound 1 1.0 × 10^−6 mol/L, in the presence of 5 μmol/L verapamil): 1.11 ± 0.03
- K+ current HP: −90 mV, relative value (before drug = 1) ([2]; Compound 1 1.0 × 10^−6 mol/L, in the presence of 20 mmol/L tetraethylammonium): 1.19 ± 0.05
- K+ current HP: −90 mV (slowly-inactivating A-type), relative value (before drug = 1) ([2]; Compound 1 1.0 × 10^−6 mol/L): 1.06 ± 0.02
- K+ current HP: −90 mV, relative value (before drug = 1) ([2]; Compound 1 1.0 × 10^−7 mol/L, in the presence of 5 μmol/L verapamil): 1.13 ± 0.02
- K+ current HP: −90 mV, relative value (before drug = 1) ([2]; Compound 1 1.0 × 10^−7 mol/L, in the presence of 20 mmol/L tetraethylammonium): 1.10 ± 0.01
- K+ current HP: −90 mV (slowly-inactivating A-type), relative value (before drug = 1) ([2]; Compound 1 1.0 × 10^−7 mol/L): 1.12 ± 0.03
- K+ current HP: −90 mV (slowly-inactivating A-type), relative value (before drug = 1) ([2]; Compound 1 1.0 × 10^−8 mol/L): 0.99 ± 0.08
- K+ current HP: −90 mV (slowly-inactivating A-type), relative value (before drug = 1) ([2]; Compound 1 2.5 × 10^−8 mol/L): 1.07 ± 0.03
- K+ current HP: −90 mV, relative value (before drug = 1) ([2]; Compound 1 5.0 × 10^−4 mol/L, in the presence of 5 μmol/L verapamil): 0.61 ± 0.05
- K+ current HP: −90 mV, relative value (before drug = 1) ([2]; Compound 1 5.0 × 10^−4 mol/L, in the presence of 20 mmol/L tetraethylammonium): 0.29 ± 0.02
- K+ current HP: −90 mV, relative value (before drug = 1) ([2]; Compound 1 5.0 × 10^−4 mol/L, in the presence of 60 mmol/L tetraethylammonium): 0.56 ± 0.05
- K+ current HP: −90 mV, relative value (before drug = 1) ([2]; Compound 1 5.0 × 10^−5 mol/L, in the presence of 5 μmol/L verapamil): 0.94 ± 0.02
- K+ current HP: −90 mV, relative value (before drug = 1) ([2]; Compound 1 5.0 × 10^−5 mol/L, in the presence of 20 mmol/L tetraethylammonium): 0.91 ± 0.04
- K+ current HP: −90 mV, relative value (before drug = 1) ([2]; Compound 1 5.0 × 10^−5 mol/L, in the presence of 60 mmol/L tetraethylammonium): 1.15 ± 0.08
- K+ current HP: −90 mV (slowly-inactivating A-type), relative value (before drug = 1) ([2]; Compound 1 5.0 × 10^−5 mol/L): 0.83 ± 0.09
- K+ current HP: −90 mV, relative value (before drug = 1) ([2]; Compound 1 5.0 × 10^−6 mol/L, in the presence of 5 μmol/L verapamil): 1.02 ± 0.03
- K+ current HP: −90 mV, relative value (before drug = 1) ([2]; Compound 1 5.0 × 10^−6 mol/L, in the presence of 20 mmol/L tetraethylammonium): 1.16 ± 0.03
- K+ current HP: −90 mV, relative value (before drug = 1) ([2]; Compound 1 5.0 × 10^−6 mol/L, in the presence of 60 mmol/L tetraethylammonium): 1.14 ± 0.05
- K+ current HP: −90 mV, relative value (before drug = 1) ([2]; Compound 1 5.0 × 10^−7 mol/L, in the presence of 5 μmol/L verapamil): 1.17 ± 0.03
- K+ current HP: −90 mV, relative value (before drug = 1) ([2]; Compound 1 5.0 × 10^−7 mol/L, in the presence of 20 mmol/L tetraethylammonium): 1.15 ± 0.04
- K+ current HP: −90 mV, relative value (before drug = 1) ([2]; Compound 1 5.0 × 10^−7 mol/L, in the presence of 60 mmol/L tetraethylammonium): 1.11 ± 0.03
- K+ current HP: −90 mV (slowly-inactivating A-type), relative value (before drug = 1) ([2]; Compound 1 5.0 × 10^−7 mol/L): 1.15 ± 0.03
- K+ current HP: −90 mV, relative value (before drug = 1) ([2]; Compound 1 5.0 × 10^−8 mol/L, in the presence of 5 μmol/L verapamil): 1.03 ± 0.02
- K+ current HP: −90 mV, relative value (before drug = 1) ([2]; Compound 1 5.0 × 10^−8 mol/L, in the presence of 20 mmol/L tetraethylammonium): 1.08 ± 0.02
- K+ current HP: −90 mV, relative value (before drug = 1) ([2]; Compound 1 5.0 × 10^−8 mol/L, in the presence of 60 mmol/L tetraethylammonium): 1.08 ± 0.02
- K+ current HP: −90 mV (slowly-inactivating A-type), relative value (before drug = 1) ([2]; Compound 1 5.0 × 10^−8 mol/L): 1.07 ± 0.02
- K+ current HP: −90 mV, relative value (before drug = 1) ([2]; Compound 1 5.0 × 10^−9 mol/L, in the presence of 20 mmol/L tetraethylammonium): 1.02 ± 0.02
- K+ current HP: −90 mV (slowly-inactivating A-type), relative value (before drug = 1) ([2]; Compound 1 5.0 × 10^−9 mol/L): 1.01 ± 0.03
- Peak compound concentration for increase of slowly-inactivating A-type K^+ currents ([2]; unidentified DRG cells, HP −90 mV): 1e-07 to 5e-07 mol/L
